From US20250326771A1, “PIPERAZINE DERIVATIVES USEFUL IN HIV THERAPY” (VIIV HEALTHCARE COMPANY, priority 2022, published 2025)

Key:
[1] = biological target: cIAP1-BIR3 (Homo sapiens (Human), UniProt Q13490); experiment: BIR binding assay (FRET competition), cIAP1 BIR3; details: for cIAP1 BIR3 vs BIR2 separation window: fold separation (FS) for cIAP1
Summary of the method: (§1)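 615/665 nm FRET ratio. Compound, His-domain and 200 nM AF647-SMAC peptide incubated 60 min, then 2 nM Eu-W1024 for 30 min. Domains: cIAP1-BIR3 50 nM; XIAP-BIR3 100 nM; cIAP1-BIR2, cIAP2-BIR2 325 nM each. 15-pt 3-fold series; variable-slope IC50.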

[2] = biological target: cIAP2-BIR3 (Homo sapiens (Human), UniProt Q13489); experiment: BIR binding assay (FRET competition), cIAP2 BIR3; details: for cIAP2 BIR3 vs BIR2 separation window: fold separation (FS) for cIAP2
cIAP2-BIR3, sequence (Q13489 238-349): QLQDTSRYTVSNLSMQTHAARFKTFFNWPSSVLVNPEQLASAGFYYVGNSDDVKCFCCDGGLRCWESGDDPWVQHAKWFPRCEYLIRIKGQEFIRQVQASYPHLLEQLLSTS

[3] = biological target: cIAP1-BIR2 (Homo sapiens (Human), UniProt Q13490); experiment: BIR binding assay (FRET competition), cIAP1 BIR2
cIAP1-BIR2, sequence (Q13490 173-257): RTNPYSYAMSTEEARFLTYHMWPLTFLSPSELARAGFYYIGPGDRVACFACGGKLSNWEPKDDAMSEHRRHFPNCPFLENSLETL
Summary of the method: as §1

[4] = biological target: cIAP2-BIR2 (Homo sapiens (Human), UniProt Q13489); experiment: BIR binding assay (FRET competition), cIAP2 BIR2
cIAP2-BIR2, sequence (Q13489 158-242): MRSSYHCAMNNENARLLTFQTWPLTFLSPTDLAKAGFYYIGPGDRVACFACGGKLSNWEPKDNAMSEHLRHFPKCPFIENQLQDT
Description: The BIR domain binding assays are FRET based competition assays that utilize His-tagged versions of each of the BIR2 and BIR3 domains from cIAP1, cIAP2, and XIAP (each domain assayed separately) each at a custom optimal concentration and a probe, 200 nM SMAC/DIABLO peptide […] labelled with AlexaFluor647 (part #crb 1110326h, Discovery Peptides). The assay is conducted in 50 mM HEPES, […], 1 mM CHAPS, 5% Glycerol, 1 mM DTT, in dI water with a final pH of 7.4 and final volume of 20 uL. Final protein domain concentrations are: 50 nM cIAP1-BIR3 (Part #APT-11-370 Reaction Biology), 100 nM XIAP-BIR3 (Part #APT-11-351 Reaction Biology), 200 nM XIAP-BIR2 (Part #APT-11-470 Reaction Biology), 325 nM cIAP2-BIR2 (Part #APT-11-489 Reaction Biology), 50 nM cIAP2-BIR3 (Part #APT-11-372 Reaction Biology), 325 nM cIAP1-BIR2 (Part #APT-11-487 Reaction Biology). Compounds were plated using a HP Tecan D300 printer in a final total volume of 202 nl and DMSO concentration normalized across the 15-point, 3-fold dilution series. Peptide and probe were prepared at 2× relative to the concentrations above in binding buffer, 10 uL added to the prepared compound plates, and incubated for 60 minutes. LANCE Eu-W1024 (part #AD0401 Perkin Elmer #, vendor) was prepared at 2× concentration in binding buffer for final concentration of 2 nM, 10 uL added to each well, and plates incubated for 30 minutes. Plates were read on an ENVISION multifunction plate reader with […] laser excitation to obtain the 615 nm/665 nm emission ratio as indicative of probe:protein proximity. Data was analyzed using GraphPad PRISM and curves fit using log(inhibitor) vs. response—Variable slope (four […] method to obtain IC50 and pIC50 values.

[5] = biological target: XIAP-BIR3 (Homo sapiens (Human), UniProt P98170); experiment: BIR binding assay (FRET competition), XIAP BIR3
XIAP-BIR3, sequence (P98170 241-356): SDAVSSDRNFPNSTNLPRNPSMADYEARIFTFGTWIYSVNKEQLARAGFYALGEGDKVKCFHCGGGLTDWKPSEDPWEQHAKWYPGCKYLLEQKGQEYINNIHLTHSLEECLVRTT
Summary of the method: as §1

[6] = system: Jurkat HIV-luciferase clones; experiment: Jurkat latency reversal assay; type: cell-based; details: Homo sapiens, 48 h; Jurkat latency reversal assay potency; read-out: Jurkat pEC50 (converted)
Summary of the method: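 Latency reversal was scored as provirus-driven luciferase luminescence in pooled Jurkat HIV-luc clones after 48 h compound exposure at 37° C. EC50 and maximal activation over vehicle were fitted with a four-parameter logistic model.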

cIAP1-BIR3, sequence (Q13490 253-363): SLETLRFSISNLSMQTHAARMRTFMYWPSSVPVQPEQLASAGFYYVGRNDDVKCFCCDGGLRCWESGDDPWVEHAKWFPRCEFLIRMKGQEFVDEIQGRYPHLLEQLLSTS

| Structure (SMILES) | IC50 [1] [nM] | cIAP1 BIR3 vs BIR2 separation window [1] | IC50 [2] [nM] | cIAP2 BIR3 vs BIR2 separation window [2] | IC50 [3] [nM] | IC50 [4] [nM] | IC50 [5] [nM] | EC50 [6] [nM] | cIAP1 BIR3 (pIC50) ([1]; FRET competition) | cIAP2 BIR3 (pIC50) ([2]; FRET competition) | cIAP1 BIR2 (pIC50) ([3]; FRET competition) | cIAP2 BIR2 (pIC50) ([4]; FRET competition) | XIAP BIR3 (pIC50) ([5]; FRET competition) |
| --- | --- | --- | --- | --- | --- | --- | --- | --- | --- | --- | --- | --- | --- |
| CC(C)c1ccccc1Cc1cc2c([nH]c1=O)C(C)(C)CN2C(=O)CN1C[C@@H](C)NC[C@@H]1CN1CCO[C@H](C(=O)NCc2ccc(CNC(=O)[C@@H]3CN(C[C@H]4CN[C@H](C)CN4CC(=O)N4CC(C)(C)c5[nH]c(=O)c(Cc6ccccc6C(C)C)cc54)CCO3)cc2)C1 [Compound 173, (2S,2′S)-N,N′-(1,4-phenylenebis(methylene)) bis(4-(((2R,5R)-1-(2-(6-(2-isopropylbenzyl)-3,3-dimethyl-5-oxo-2,3,4,5-tetrahydro-1H-pyrrolo[3,2-b]pyridin-1-yl)-2-oxoethyl)-5-methylpiperazin-2-yl)methyl)morpholine-2-carboxamide)] | 31.6 to 501 | +++ (10,000>FS>1,000) | 15.8 to 31.6 | +++ (10,000>FS>1,000) | 10000 to 51300 | 3160 to 10000 | 31.6 to 501 | 63.1 to 316 |  |  |  |  |  |
| C[C@@H]1CN(CC(=O)N2CC(C)(C)c3[nH]c(=O)c(Cc4cc(F)c(F)c(F)c4F)cc32)[C@@H](CN2CCO[C@H](C(=O)NCc3ccc(CNC(=O)[C@@H]4CN(C[C@H]5CN[C@H](C)CN5CC(=O)N5CC(C)(C)c6[nH]c(=O)c(Cc7cc(F)c(F)c(F)c7F)cc65)CCO4)cc3)C2)CN1 [Compound 174, (2S,2′S)-N,N′-(1,4-phenylenebis(methylene)) bis(4-(((2R,5R)-1-(2-(3,3-dimethyl-5-oxo-6-(2,3,4,5-tetrafluorobenzyl)-2,3,4,5-tetrahydro-1H-pyrrolo[3,2-b]pyridin-1-yl)-2-oxoethyl)-5-methylpiperazin-2-yl)methyl)morpholine-2-carboxamide)] |  | +++ (10,000>FS>1,000) |  | +++ (10,000>FS>1,000) |  |  |  | 0.49 to 12.6 | +++ (8.10>pIC50>=7.80) | +++ (8.10>pIC50>=7.80) | ++ (5.00<pIC50<=5.50) | ++ (5.00<pIC50<=5.50) | ++ (7.80>pIC50>=7.50) |
| C[C@@H]1CN(CC(=O)N2CC(C)(C)c3[nH]c(=O)c(Cc4c(F)c(F)c(F)c(F)c4F)cc32)[C@@H](CN2CCO[C@H](C(=O)NCc3ccc(CNC(=O)[C@@H]4CN(C[C@H]5CN[C@H](C)CN5CC(=O)N5CC(C)(C)c6[nH]c(=O)c(Cc7c(F)c(F)c(F)c(F)c7F)cc65)CCO4)cc3)C2)CN1 [Compound 176, (2S,2′S)-N,N′-(1,4-phenylenebis(methylene)) bis(4-(((2R,5R)-1-(2-(3,3-dimethyl-5-oxo-6-((perfluorophenyl)methyl)-2,3,4,5-tetrahydro-1H-pyrrolo[3,2-b]pyridin-1-yl)-2-oxoethyl)-5-methylpiperazin-2-yl)methyl)morpholine-2-carboxamide)] | 31.6 to 501 | ++ (1,000>FS>100) | 15.8 to 31.6 | +++ (10,000>FS>1,000) | 3160 to 10000 | 3160 to 10000 | 31.6 to 501 | 0.49 to 12.6 |  |  |  |  |  |
| C[C@@H]1CN(CC(=O)N2CC(C)(C)c3[nH]c(=O)c(Cc4ccc(F)c(F)c4F)cc32)[C@@H](CN2CCO[C@H](C(=O)NCc3ccc(CNC(=O)[C@@H]4CN(C[C@H]5CN[C@H](C)CN5CC(=O)N5CC(C)(C)c6[nH]c(=O)c(Cc7ccc(F)c(F)c7F)cc65)CCO4)cc3)C2)CN1 [Compound 178, (2S,2′S)-N,N′-(1,4-phenylenebis(methylene)) bis(4-(((2R,5R)-1-(2-(3,3-dimethyl-5-oxo-6-(2,3,4-trifluorobenzyl)-2,3,4,5-tetrahydro-1H-pyrrolo[3,2-b]pyridin-1-yl)-2-oxoethyl)-5-methylpiperazin-2-yl)methyl)morpholine-2-carboxamide)] | 15.8 to 31.6 | +++ (10,000>FS>1,000) | 7.94 to 15.8 | +++ (10,000>FS>1,000) | 1000 to 3160 | 1000 to 3160 | 15.8 to 31.6 | 0.49 to 12.6 |  |  |  |  |  |
| C[C@@H]1CN(CC(=O)N2CC(C)(C)c3[nH]c(=O)c(Cc4c(Cl)cc(Cl)cc4Cl)cc32)[C@@H](CN2CCO[C@H](C(=O)NCc3ccc(CNC(=O)[C@@H]4CN(C[C@H]5CN[C@H](C)CN5CC(=O)N5CC(C)(C)c6[nH]c(=O)c(Cc7c(Cl)cc(Cl)cc7Cl)cc65)CCO4)cc3)C2)CN1 [Compound 180, (2S,2′S)-N,N′-(1,4-phenylenebis(methylene)) bis(4-(((2R,5R)-1-(2-(3,3-dimethyl-5-oxo-6-(2,4,6-trichlorobenzyl)-2,3,4,5-tetrahydro-1H-pyrrolo[3,2-b]pyridin-1-yl)-2-oxoethyl)-5-methylpiperazin-2-yl)methyl)morpholine-2-carboxamide)] | 31.6 to 501 | ++ (1,000>FS>100) | 31.6 to 501 | ++ (1,000>FS>100) | 10000 to 51300 | 10000 to 51300 | 31.6 to 501 | 63.1 to 316 |  |  |  |  |  |
| C[C@@H]1CN(CC(=O)N2CC(C)(C)c3[nH]c(=O)c(Cc4c(F)cc(F)cc4F)cc32)[C@@H](CN2CCO[C@H](COc3cccc(OC[C@@H]4CN(C[C@H]5CN[C@H](C)CN5CC(=O)N5CC(C)(C)c6[nH]c(=O)c(Cc7c(F)cc(F)cc7F)cc65)CCO4)c3)C2)CN1 [Compound 188] | 15.8 to 31.6 | +++ (10,000>FS>1,000) | 15.8 to 31.6 | ++ (1,000>FS>100) | 1000 to 3160 | 1000 to 3160 | 15.8 to 31.6 | 0.49 to 12.6 |  |  |  |  |  |
| C[C@@H]1CN(CC(=O)N2CC(C)(C)c3[nH]c(=O)c(Cc4ccc(Cl)cc4C#N)cc32)[C@@H](CN2CCO[C@H](COc3cccc(OC[C@@H]4CN(C[C@H]5CN[C@H](C)CN5CC(=O)N5CC(C)(C)c6[nH]c(=O)c(Cc7ccc(Cl)cc7C#N)cc65)CCO4)c3)C2)CN1 [Compound 189] | 15.8 to 31.6 | +++ (10,000>FS>1,000) | 15.8 to 31.6 | +++ (10,000>FS>1,000) | 1000 to 3160 | 3160 to 10000 | 31.6 to 501 | 0.49 to 12.6 |  |  |  |  |  |
| C[C@@H]1CN(CC(=O)N2CC(C)(C)c3[nH]c(=O)c(Cc4ccc(F)cc4)cc32)[C@@H](CN2CCN(C(=O)COc3ccc(OCC(=O)N4CCN(C[C@H]5CN[C@H](C)CN5CC(=O)N5CC(C)(C)c6[nH]c(=O)c(Cc7ccc(F)cc7)cc65)[C@H](C)C4)cc3)C[C@H]2C)CN1 [Example 13, 1,1′-(2,2′-((3R,3′R,6R,6′R)-(((2R,2′R)-(2,2′-(1,4-phenylenebis(oxy))bis(acetyl))bis(2-methylpiperazine-4,1-diyl))bis(methylene))bis(3-methylpiperazine-6,1-diyl))bis(acetyl))bis(6-(4-fluorobenzyl)-3,3-dimethyl-1,2,3,4-tetrahydro-5H-pyrrolo[3,2-b]pyridin-5-one)] | 15.8 to 31.6 |  | 15.8 to 31.6 |  | 22.4 to 1000 | 1000 to 3160 | 15.8 to 31.6 | 63.1 to 316 |  |  |  |  |  |
| C[C@@H]1CN(CC(=O)N2CC(C)(C)c3[nH]c(=O)c(Cc4ccc(F)cc4)cc32)[C@@H](CN2CCN(C(=O)/C=C/c3ccc(/C=C/C(=O)N4CCN(C[C@H]5CN[C@H](C)CN5CC(=O)N5CC(C)(C)c6[nH]c(=O)c(Cc7ccc(F)cc7)cc65)[C@H](C)C4)cc3)C[C@H]2C)CN1 [Example 14, 1,1′-(2,2′-((3R,3′R,6R,6′R)-(((2R,2′R)-((2E,2′E)-3,3′-(1,4-phenylene)bis(acryloyl))bis(2-methylpiperazine-4,1-diyl))bis(methylene))bis(3-methylpiperazine-6,1-diyl))bis(acetyl))bis(6-(4-fluorobenzyl)-3,3-dimethyl-1,2,3,4-tetrahydro-5H-pyrrolo[3,2-b]pyridin-5-one)] | 15.8 to 31.6 | ++ (1,000>FS>100) | 15.8 to 31.6 | ++ (1,000>FS>100) | 22.4 to 1000 | 22.4 to 1000 | 15.8 to 31.6 | 63.1 to 316 |  |  |  |  |  |
